Source: patent US9586985B2, “Organic compounds as proantigens for natural killer T cells” (Callaghan Innovation Research Limited, priority 2012, dated 2017)

How the values were obtained:
[1] = tested on: B16.OVA melanoma cells; experiment: Anti-tumour activity against subcutaneous B16.OVA tumours, given with OVA protein; format: in vivo, C57BL/6 mice; settings: i.v. with 200 μg OVA protein seven days after tumour challenge
Experimental: Progression of subcutaneous B16.OVA tumours is monitored in animals that are treated seven days after tumour challenge with intravenous OVA protein together with the indicated compounds, or treated with PBS. The mean tumour sizes per group (n=5)±SEM are shown.
Progression of subcutaneous B16.OVA tumours is monitored in animals that are treated seven days after tumour challenge with intravenous OVA protein together with the indicated compounds, or treated with PBS. The mean tumour sizes per group (n=5)±SEM are shown. […] (Compound CN158A=CN158 in water.)
Groups of C57BL/6 mice (n=5) receive a subcutaneous injection into the flank of 1×10^5 B16.OVA melanoma cells, which express a cDNA encoding the chicken ovalbumin (OVA) sequence. The different groups are treated 7 days later, when tumours are fully engrafted, by intravenous injection of one of the following; 200 μg OVA protein together with 200 ng α-GalCer, 200 μg OVA protein together with 200 ng of a compound of the invention, or PBS. Mice are monitored for tumour growth every 3-4 days, and tumour size for each group is calculated as the mean of the products of bisecting diameters (±SEM). Measurements are terminated for each group when the first animal develops a tumour exceeding 200 mm^2.

[2] = tested on: cytokines IL-12p70, IL-4 and IFN-g; experiment: Cytokine release into serum after injection (cytokine bead array); format: in vivo, C57BL/6 mice
Experimental: (§1) Groups of C57BL/6 mice (n=3 per group) are injected intravenously with 200 ng of the indicated compounds, and then the serum is collected at the indicated times for analysis of cytokine levels by cytokine bead array technology.
as §1, with “ng of α-GalCer or an equivalent molar amount” for “ng”, “technology. (Compound CN158A1b=CN158 formulated in accordance with Example 15; Compound CN158A=CN158 in water.)” for “technology.”
Blood is collected from the lateral tail vein at different time intervals after glycolipid administration. Serum is collected after blood has clotted, and levels of cytokines IL-12p70, IL-4 and IFN-g are assessed by cytokine bead array technology (Bioplex, Biorad), according to the manufacturer's instructions.

[3] = HPLC-ESI-MSMS quantification of α-GalCer in test samples; format: physicochemical; settings: freshly reconstituted formulated sample; estimated maximum level
Experimental: Quantification of the amount of α-GalCer in various test samples of compounds of the invention is made by HPLC-ESI-MSMS analysis using a Waters 2795 HPLC and a Waters Q-TOF Premier™ Tandem Mass Spectrometer. The chromatography used a Phenomenex Kinetex C18 […] 3.0×50 mm column eluting with isocratic methanol containing 10 mM ammonium formate+0.5% formic acid at a flow rate of 0.2 mL/min. α-GalCer is monitored by selective reactant monitoring of 858.7 to 696.7 Da. The estimate of amount of α-GalCer is made by comparison of ion count integrals to a standard curve run on the same day or by comparison to test samples spiked with a known amount of α-GalCer.
The level of α-GalCer is determined on freshly reconstituted formulated samples unless otherwise stated. The estimated maximum level of α-GalCer for key compounds is given below.

[4] = tested on: human NKT cells; experiment: Proliferation of human NKT cells in PBMC culture; format: cell-based; settings: 7 days culture with IL-2, one donor, FIG. 6
Experimental: PBMC from one donor are cultured for 7 days with different doses of the indicated compounds in the presence of IL-2, and then the percentages of NKT cells in the final cultures determined by flow cytometry with fluorescent α-GalCer-loaded CD1d tetramers and anti-CD3. Data are expressed as percentage of NKT cells (α-GalCer/CD1d tetramer and anti-CD3-binding cells) of total T cells (all anti-CD3-binding cells).
Peripheral blood is drawn into heparinized tubes, diluted 1:1 in PBS, and layered over a sodium diatrizoate and polysaccharide solution (Lymphoprep; Axis-Shield, Oslo, Norway) before centrifugation at 800×g for 25 minutes at room temperature to collect the peripheral blood mononuclear cell (PBMC) fraction, which contains NKT cells. To assess proliferation of NKT cells, PBMC (2×10^5 per well) are cultured at 37° C. in Iscove's Modified Dulbecco's Medium with 5% human AB serum and the indicated concentrations of α-GalCer, or the compounds of the invention, with recombinant human IL-2 50 U/mL (Chiron Corporation, Emeryville, Calif.) added after 24 hours. After 7 days of culture, the cells are analysed by flow cytometry, using fluorescent soluble CD1d tetramers that have been loaded with α-GalCer to identify the NKT cells. […]

CCCCCCCCCCCCCCCCCCCCCCCCCC(=O)O[C@H](CCCCCCCCCCCCCC)[C@@H](O)[C@H](CO[C@H]1O[C@H](CO)[C@H](O)[C@H](O)[C@H]1O)NC(=O)OCOC(=O)C(C)(C)C [CN145, (2S,3S,4R)-1-O-α-D-Galactopyranosyl-4-O-hexacosanoyl-2-(pivaloyloxymethoxycarbonylamino) octadecane-1,3,4-triol]
anti-tumour activity: growth of established B16.OVA tumours [1]: equally beneficial in promoting immune responses that suppress growth of established tumours
cytokine profile in vivo compared to α-GalCer ([2]; 200 ng i.v. or molar equivalent, FIGS. 3 and 8): different cytokine profiles
course of IL-12p70 level in serum ([2]; 200 ng i.v., FIG. 3): still increasing through 6 to 12 h
ratio of IFN-γ to IL-4 in serum compared to α-GalCer ([2]; 200 ng i.v., FIG. 3): higher ratio of IFN-γ to IL-4 than that of α-GalCer
overall levels of systemic cytokine production ([2]; 200 ng α-GalCer or equivalent i.v., FIGS. 3 and 8): not as potent as α-GalCer in terms of overall levels of cytokine production
Max α-GalCer (ppm) [3]: 40 ppm
Max α-GalCer/injection [3]: 0.008 ng
expansion of human NKT cells from PBMC [4]: able to induce the expansion of human NKT cells
